Assay results published in the SangsterLogP compilation.

SMILES	logP
CC(=O)NCCCCN1CCc2ccccc2C1	2.3
O=C(NCCCN1CCc2ccccc2C1)C1CCCCC1	3.44
O=C(NCCCCN1CCc2ccccc2C1)C12CC3CC(CC(C3)C1)C2	4.82
O=C(NCCCN1CCc2ccccc2C1)C1CCCC1	3.45
O=C(CC1CC2CCC1C2)NCCCCN1CCc2ccccc2C1 (configuration not stated)	4.58
O=C(NCCN1CCc2ccccc2C1)C12CC3CC(CC(C3)C1)C2	4.61
CC(=O)NCCN1CCc2ccccc2C1	1.83
CC(C)(C)C(=O)NCCN1CCc2ccccc2C1	3.13
CC(C)(C)C(=O)NCCCN1CCc2ccccc2C1	3.46
CC(C)C(=O)NCCN1CCc2ccccc2C1	2.87
O=C(NCCN1CCc2ccccc2C1)C1CCCCC1	3.14
O=C(NCCN1CCc2ccccc2C1)C1CC1	2.76
O=C(NCCCN1CCc2ccccc2C1)C1CC1	2.75
O=C(NCCCCN1CCc2ccccc2C1)C1CCC1	3.3
O=C(NCCCN1CCc2ccccc2C1)C1CCC1	3.12

Further lines, results first:

logP	SMILES
4.37	O=C(NCCN1CCc2ccccc2C1)C1CCC2CCCC21 (configuration not stated)
3.02	O=C(NCCCCN1CCc2ccccc2C1)C1CC1
4.5	O=C(NCCCN1CCc2ccccc2C1)C1CCC2CCCC21 (configuration not stated)
3.52	O=C(NCCN1CCc2ccccc2C1)C1CCCC1
2.66	CC(=O)NCCCN1CCc2ccccc2C1
2.9	O=C(NCCN1CCc2ccccc2C1)C1CCC1
2.93	CC(C)C(=O)NCCCCN1CCc2ccccc2C1
4.46	O=C(NCCCCN1CCc2ccccc2C1)C1CCC2CCCC21 (configuration not stated)
3.31	CC(C)(C)C(=O)NCCCCN1CCc2ccccc2C1
2.56	CC(C)C(=O)NCCCN1CCc2ccccc2C1
4.26	O=C(CC1CC2CCC1C2)NCCN1CCc2ccccc2C1 (configuration not stated)
5.14	O=C(NCCCN1CCc2ccccc2C1)C12CC3CC(CC(C3)C1)C2
